Experimental data: US8106053B2, “5-phenyl-3-pyridazinone derivative” (Kowa Company, Ltd., priority 2007, dated 2012)

Key:
[1] = test system: PAI-1 production in human airway epithelial cells (BEAS-2B); assay: Activity of inhibiting PAI-1 production using airway epithelial cells (TGF-β stimulated, ELISA); format: cell-based; settings: BEAS-2B cells, 24 hours, PAI-1 in culture supernatant by ELISA
Experimental: The effect of a compound on PAI-1 production activity using airway epithelial cells was examined. This reflects PAI-1 concentration in the lung tissue related to fibrosis (lung).
The effect on the amount of PAI-1 produced using human airway epithelial cells (BEAS-2B) was examined. After 0.1 ml each of BEAS-2B cells prepared at 2×10^6 cells/ml was added to a collagen I-coated 96-well plate, preincubated for 24 hours, 0.1 ml of a medium containing […] TGF-β was added thereto and incubated for 24 hours, the amount of PAI-1 in the culture supernatant was determined using an ELISA kit. The test substance was dissolved in dimethyl sulfoxide (final concentration, 0.1% or less), and was prepared at 0.2, 1, 5 and 25 μM using a phosphate buffer, and added after preculturing. The activity of inhibiting PAI-1 production of the compound of the present invention was expressed in terms of the IC50 value and shown in Table 2.

[2] = test system: C57BL/6 mice, bleomycin-induced pulmonary fibrosis; assay: Bleomycin-induced pulmonary fibrosis model, amount of lung hydroxyproline; format: in vivo; settings: 0.3 mg/kg orally once daily, three weeks after intratracheal bleomycin 6 mg/kg, relative to solvent-administration group
From the text: It has been reported that bleomycin administration into the trachea leads to pulmonary fibrosis. Its pathological findings including the hypertrophy and fibrosis of the alveolar wall, increased inflammatory cells, the increased amount of hydroxyproline etc. are similar to clinical idiopathic pulmonary fibrosis, and it has been often used as an experimental model of pulmonary fibrosis (Biochem. Biophys. Res. Comm. 288, 747 (2001)). To C57BL/6 mice (6-week-old, female), bleomycin hydrochloride (Bleo: NIPPON KAYAKU CO., LTD) (6 mg/kg, 25 μl/animal) was injected into the bronchus together with 500 μl of compressed air. Three weeks after administration into the trachea, the amount of hydroxyproline in the lung was determined. 0.3 mg/kg of the test substance was suspended in 0.5% carboxymethyl cellulose sodium, and orally administered once daily. The effect of the compound of the present invention was expressed in the inhibition percentage relative to the increased amount of lung hydroxyproline of the solvent-administration group, and shown in Table 3.

Row | Molecule | IC50 ([1]; Homo sapiens) [µM] | Inhibition percentage relative to the increased amount of pulmonary hydroxyproline [2] [%] | IC50 [1] [µM]
1 | COc1ccc(-c2cnn(C)c(=O)c2)cc1OC1CCOC1 (centres unmarked) [Compound No. 12, 5-(4-methoxy-3-(3-tetrahydrofuranyloxy)phenyl)-2-methylpyridazin-3-one] | 4 |  | 
2 | COc1ccc(-c2cnn(Cc3ccc4ccccc4n3)c(=O)c2)cc1OC1CCCC1 [Compound No. 19, 5-(3-(cyclopentyloxy)-4-methoxyphenyl)-2-(2-quinolylmethyl)pyridazin-3-one] |  | 132 | 
3 | COc1ccc(-c2cnn(C)c(=O)c2)cc1OC1CCCC1 [Compound No. 3, 5-(3-(cyclopentyloxy)-4-methoxyphenyl)-2-methylpyridazin-3-one] | 5.8 | 68 | 
4 | 5-(4-methoxy-3-(tetrahydrofuranyloxy)phenyl)-2-phenylpyridazin-3-one [Compound No. 9] |  | 117 | 
5 | COc1ccc(-c2cn[nH]c(=O)c2)cc1OC [Compound No. 1, 5-(3,4-dimethoxyphenyl)pyridazin-3-one] | 14.1 |  | 
6 | COc1ccc(-c2cnn(C)c(=O)c2)cc1O[C@H]1CCOC1 [Compound No. 16, (S)-5-(4-methoxy-3-(3-tetrahydrofuranyloxy)phenyl)-2-methylpyridazin-3-one] | 23.2 |  | 
7 | COc1ccc(-c2cnn(-c3ccccc3)c(=O)c2)cc1OC1CCCC1 [Compound No. 6, 5-(3-(cyclopentyloxy)-4-methoxyphenyl)-2-phenylpyridazin-3-one] |  | 84 | 
8 | 5-(3-(cyclopropylmethyl)-4-methoxyphenyl)-2-methylpyridazin-3-one [Compound No. 2] |  | 66 | 16.8
9 | COc1ccc(-c2cn[nH]c(=O)c2)cc1OC1CCOC1 (centres unmarked) [Compound No. 4, 5-(4-methoxy-3-(3-tetrahydrofuranyloxy)phenyl)pyridazin-3-one] | 8.4 |  | 
